Patent US6780848B2, “Use of GPE to protect glial cells or non-dopaminergic cells from death from neural injury or disease” (NeuronZ, Ltd., priority 1993, dated 2004)

How the values were obtained:
[1] = tested on: hypoxic-ischemic injury, 21 day old Wistar rats; settings: rat, in vivo, ip
Procedure: The objective of this study was to compare the effects of treatment with GPE to that of a vehicle given 2 hours after an hypoxic-ischemic injury. The dose range of 2 to 200 μg was chosen to span a range of systemic doses that are greater than that required centrally (see experiment 3).
Unilateral hypoxic-ischemic injury was induced in 21 day old, 45±5 g Wistar rats. The rats underwent unilateral carotid ligation under light halothane anaesthesia.
Following one hour recovery they were placed in an incubator at 34 deg C. 85±5% humidity for one hour before the injury. They were subjected to 1 min inhalation hypoxia (FiO2 8.0%) and then returned to room temperature (22 deg C.) and normoxia. […]
Surviving and dead neurons were discriminated using the thionin/acid fuchsin staining technique (Guan et al J Cereb Blood Flow Metab. 13:609-616 (1993). The results, in which the height of a point is given by the ratio as a percentage of live neurones in the CA1-2 region on the right side to the number on the left side are shown in FIG. 5. Column A is vehicle, column B is 2 μg of GPE, column C is 20 μg of GPE, and column D is 200 μg of GPE. In this figure, the P value (0.031) was calculated by a method using one way ANOVA comparing many groups after Arcsin transformation.

[2] = tested on: hypoxic-ischemic injury to one cerebral hemisphere, adult Wistar rats; assay: Experiment 1: IGF-1 and/or MK801 2 hours after unilateral hypoxic-ischemic injury, histology at 120 hours; assay type: in vivo, rat; settings: treatment 2 hours after hypoxia, IGF-1 50 μg intraventricular, MK801 1 mg, controls 65%
Procedure: One carotid artery was ligated and the animal was subjected two hours later to a defined period of inhalational hypoxia. The degree, length of hypoxia, ambient temperature and humidity were defined to standardise the degree of damage. They were sacrificed five days later for histological analysis using stains (acid-fuchsin) specific for necrotic neurons.
Adult Wistar rats (68 280-320 g) were prepared under 3% halothane/O2 anaesthesia. The right side carotid artery was ligated. A guide cannula was placed on the dura 8.2 mm anterior from bregma and 1.4 mm from midline on the right. The rats were allowed to recover from anaesthesia for 1 hour and were then placed in an incubator with humidity 85±5% and temperature 34±0.5C. for 1 hour before hypoxia. Oxygen concentration was reduced and maintained at 6±0.2 02% hypoxia for 10 minutes. […] Fifty micrograms of IGF-1 or vehicle alone (0.1% BSA in 0.15M PBS (pH 7.3)) were given via intra-ventricular (IVC) infusion. […] The intraventricular injections of 50 μg IGF-1 or vehicle alone were made into the right lateral ventricle at 1 μl/minute under 1.5%-2% halothane anaesthetic. […] The presence of cortical infarction, defined as a region of tissue death or parenchymal pan-necrosis due to death of glia as well as neurons, was determined via light microscopy by an assessor who was blinded to the experimental groupings.

[3] = tested on: ischemic brain injury, late gestation fetal sheep; assay: Experiment 2: IGF-1 into lateral ventricle 2 hours after 30 minutes of brain ischemia in fetal sheep; assay type: in vivo
Source text: The objective of this study was to compare the effects of treatment either with IGF-1 (see FIG. 2) and previously published work with the NMDA antagonist MK810 after an ischemic brain injury on postischernic seizures and neuronal losses in fetal sheep. (Tan et al Ann Neurol 32:677-682 (1992)).
The methods were those of an earlier study (Tan et al Ann Neurol 32:677-682 (1992)). Briefly, late gestation fetal sheep were chronically instrumented to record EEG, nuchal activity and blood pressure, and were then returned to the uterus. Cortical EEG activity, nuchal activity and blood pressure were recorded throughout he experiment and the fetal brain subjected to 30 minutes of ischemia. Two hours later they were treated by an infusion of either 1 μg IGF-1 (n=6) or vehicle (artificial CSF) (n=6) into the lateral ventricle. Five days later the brains were fixed and assessed for neuronal loss as described previously (Tan et al Ann Neurol 32:677-682 (1992)).
In all cases the vehicle is the left-hand column and the effects of 1 μg of IGF-1 is on the right.

[4] = tested on: ischemic brain injury, late gestation fetal sheep; settings: ischemic model in fetal sheep; Tan et al Ann Neurol 32:677-682 (1992); cited from earlier work

Row | Compound | passage of the blood-brain barrier [1] | incidence of cortical infarction [2] [%] | suppression of postischemic seizure activity ([3]; 1 μg IGF-1 2 h after ischemia) | neuronal rescue (neuronal loss scores) ([3]; 1 μg IGF-1 into lateral ventricle 2 h after 30 minutes ischemia, assessed five days later) | suppression of cortical electroencephalographic activity [4]
1 | NCC(=O)N1CCC[C@H]1C(=O)N[C@@H](CCC(=O)O)C(=O)O [GPE, gly-pro-glu] | can cross the blood-brain barrier |  |  |  | 
2 | insulin-like growth factor 1 [IGF-1] |  | 33 | did not suppress the postischemic seizure activity | rescued neurons | did not suppress cortical electroencephalographic activity
3 | C[C@]12N[C@H](Cc3ccccc31)c1ccccc12 [MK801, reference compound] |  | 50 |  |  | 
